# pKi: −log10 of the molar value. Read-outs that look alike come from different tables or passages of the source.
# Assays:
# [1] = molecular target: T1, 3R/4R-tau aggregates in AD tissue (Homo sapiens, UniProt P10636); assay: Competition binding vs [^3H]OXD-2314 in AD tissue
# Experimental: (§1) Fresh frozen, autopsy-confirmed human PD anterior cingulate cortex brain tissue blocks (1 cm^3) were obtained from Dr. Thomas Beach at Banner/Sun Health AZ with funding from the Michael J. Fox Foundation and contained frequent α-synuclein aggregates and no other detectable aggregated amyloid species. The frozen tissue blocks were prepared for the binding assays as previously described[47],[48], except that equal quantities of the homogenates of three AD brains (AD1-AD3, Table S1) were pooled, as were homogenates from three PSP brains (PSP1-PSP3), three CBD brains (CBD1-CBD3), three Pick’s brains (PiD1-PiD3), and 4 PD brains (PD1-PD4) in order to help minimize the inter-subject variability within the different neuropathological groups. Individual subcortical brain tissues from a PSP subject (PSP4) and a CBD subject (CBD4), as well as with the middle frontal cortex of a control subject, were prepared for the binding assays as previously described[47],[48].
# (§2) The equilibrium inhibition constant (Ki) values of the unlabeled compounds were determined versus tritium-labeled radioligands using published methods.
# Target sequence in this assay (P10636 623-758 limits assumed): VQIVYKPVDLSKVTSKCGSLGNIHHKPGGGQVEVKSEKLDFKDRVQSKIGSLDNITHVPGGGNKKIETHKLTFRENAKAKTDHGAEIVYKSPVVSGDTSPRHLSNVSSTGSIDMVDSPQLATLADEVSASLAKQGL
# [2] = molecular target: T2, 4R-tau aggregates in CBD tissue (Homo sapiens, UniProt P10636); assay: Competition binding vs [^3H]OXD-2314 in CBD tissue
# T2 construct: tissue Neurodegenerative Disease Brain Bank at UCSF; host or cells: human CBD brain, middle frontal gyrus (pool of three) or putamen (one subject)
# T2 sequence (P10636 1-441 isoform P10636-8): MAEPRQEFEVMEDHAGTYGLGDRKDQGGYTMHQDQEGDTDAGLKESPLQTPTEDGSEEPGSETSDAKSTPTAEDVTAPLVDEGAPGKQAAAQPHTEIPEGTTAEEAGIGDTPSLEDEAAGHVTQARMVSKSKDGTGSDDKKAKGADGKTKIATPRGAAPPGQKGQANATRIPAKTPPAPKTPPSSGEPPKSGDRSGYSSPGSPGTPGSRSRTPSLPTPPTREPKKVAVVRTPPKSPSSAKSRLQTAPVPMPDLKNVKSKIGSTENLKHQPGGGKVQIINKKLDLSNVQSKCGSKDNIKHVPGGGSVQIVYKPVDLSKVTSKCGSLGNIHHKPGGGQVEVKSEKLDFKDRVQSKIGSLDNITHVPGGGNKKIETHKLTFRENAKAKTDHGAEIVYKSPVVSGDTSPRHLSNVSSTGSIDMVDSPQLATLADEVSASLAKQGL
# Experimental: as §1, §2
# [3] = molecular target: T3, 4R-tau aggregates in PSP tissue (Homo sapiens, UniProt P10636); assay: Competition binding vs [^3H]OXD-2314 in PSP tissue
# T3 construct: tissue Neurodegenerative Disease Brain Bank at UCSF
# T3 sequence (P10636 1-441 isoform P10636-8): as above
# Experimental: as §1, §2
# [4] = molecular target: T4, 3R-tau aggregates in PiD tissue (Homo sapiens, UniProt P10636); assay: Competition binding vs [^3H]OXD-2314 in PiD tissue
# T4 construct: tissue Neurodegenerative Disease Brain Bank at UCSF; host or cells: human PiD brain, middle frontal gyrus, pooled homogenate of three brains
# T4 sequence (P10636 1-410 isoform P10636-5): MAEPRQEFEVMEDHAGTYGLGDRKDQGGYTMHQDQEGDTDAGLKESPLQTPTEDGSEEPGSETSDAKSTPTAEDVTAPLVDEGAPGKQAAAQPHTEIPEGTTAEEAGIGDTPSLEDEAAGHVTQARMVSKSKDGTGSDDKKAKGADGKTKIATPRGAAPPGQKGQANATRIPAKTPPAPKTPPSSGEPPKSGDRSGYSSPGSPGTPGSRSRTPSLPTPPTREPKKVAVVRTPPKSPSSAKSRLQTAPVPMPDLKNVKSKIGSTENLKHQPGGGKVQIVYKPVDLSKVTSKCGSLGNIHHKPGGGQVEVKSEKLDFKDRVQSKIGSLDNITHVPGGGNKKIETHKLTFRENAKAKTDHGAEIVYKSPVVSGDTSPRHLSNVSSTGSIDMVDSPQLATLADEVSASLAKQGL
# Experimental: as §1, §2
# [5] = molecular target: T1, 3R/4R-tau aggregates in AD tissue; assay: Competition binding vs [^3H]OXD-2115 in AD tissue homogenates; conditions: vs [^3H]OXD-2115, AD tissue homogenates, n = 1
# Experimental: as §1, §2
# Target sequence in this assay (P10636 623-695 limits assumed): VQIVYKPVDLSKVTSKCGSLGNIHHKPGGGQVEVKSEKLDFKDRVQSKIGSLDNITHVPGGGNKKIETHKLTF
# [6] = molecular target: T3, 4R-tau aggregates in PSP tissue; assay: Competition binding vs [^3H]OXD-2115 in PSP tissue homogenates; conditions: vs [^3H]OXD-2115, PSP tissue homogenates, n = 1
# Experimental: as §1, §2
# [7] = Mouse pharmacology (DMPK): plasma and brain concentrations, brain-to-plasma ratios after i.v. administration; type: in vivo, mice; conditions: mouse, brain, iv, mice, i.v., AUC brain:plasma
# Experimental: Ex vivo evaluation of the BBB permeability of OXD-2314 was performed by measuring the brain-to-plasma ratios in mice. Compound concentrations in plasma (0.03 h, 0.17 h, 0.5 h, 1 h, and 2 h; n = 3 per timepoint) were compared with concentrations in brain (0.03 h, 0.17 h, 1 h, and 2 h; n = 3 per timepoint) for both OXD-2115 and OXD-2314. The total brain-to-plasma concentration ratios were 1.7 for OXD-2314 and 0.1 for OXD-2115. The free concentration ratio for brain-to-plasma was 0.6 for OXD-2314 and 0.002 for OXD-2115 (Figs. S3–S8 and Tables S2, S3).
# [8] = Baseline PET-CT imaging of [18F]OXD-2188 and [18F]OXD-2189 in rats; type: in vivo, rat; conditions: normal rats, n = 2
# Experimental: In vitro characterization, radiosynthesis and rat PET imaging of [ 18F ]O X D -2188 and […]
# In vitro characterization. Ki values for OXD-21188 and OXD-2189 vs. [3H]OXD- 2115 in PSP tissue was 29.8 nM and 13.7nM respectively.
# Radiochemistry. [18F]OXD- 2188 and [18F]OXD- 2189 were radiolabeled using the same […]
# radiochemical purity above 95%, molar activity of 60.1 and 58.4 GBq/μmol, respectively, and radiochemical yield of 9% (not decay- co rrected).
# PET imaging. Three adul t rats (two females and o ne male) w ere used in b aseline PET imaging of [18F]OXD- 2188 and [18F]OXD- 2189 (16- 23 MBq injected, with the m ale rat being scanned twice on two consecutive d ays). […]
# for both [18F]OXD- 2188 (n=2) and [18F]OXD- 2189 (n=2) with rapid clearance of radioactivity from the brain (Figure S1).
# Figure S1. Structures of OXD-2188 and OXD-2189, time-activity curves and representative PET summation images […]
smiles,measurement,setting,value
C#CCN(C)C(C)Cc1ccccc1 (stereo not drawn) [Deprenyl],pKi,"[1]; vs [^3H]OXD-2314, AD tissue",5.54
same,pKi,"[2]; vs [^3H]OXD-2314, CBD tissue",5.30
same,pKi,"[3]; vs [^3H]OXD-2314, PSP tissue",5.52
Nc1c(F)ccc2cnc(-n3ccc4ccncc43)cc12 [MK-6240],pKi,[1],5.72
same,pKi,[4],6.00
same,pKi,[2],5.77
same,pKi,[3],5.25
OCC1CCN(c2ccc(-c3cc4cc(O)ccc4[nH]3)c(F)n2)CC1 [OXD-2115],pKi,[1],7.85
same,pKi,[4],7.64
same,pKi,[5],7.70
same,pKi,[6],7.57
same,pKi,[2],7.52
same,"Kp,uu (unbound brain-to-plasma ratio)","[7]; FREE, read-out: free concentration ratio brain-to-plasma",0.002
same,Kp,"[7]; TOTAL, read-out: total brain-to-plasma concentration ratio",0.1
same,pKi,[3],7.57
Oc1ccc2[nH]c(-c3ccc(N4CCC[C@@H](O)C4)nc3F)cc2c1 [OXD-2188],pKi,[6],7.53
Oc1ccc2[nH]c(-c3ccc(N4CCC[C@H](O)C4)nc3F)cc2c1 [OXD-2189],pKi,[6],7.86
Oc1ccc2[nH]c(-c3ccc(N4CCC(O)CC4)nc3F)cc2c1 [OXD-2310],pKi,[5],7.68
same,pKi,[6],8.18
Oc1ccc2[nH]c(-c3ccc(N4CCCC(F)C4)nc3F)cc2c1 (stereo not drawn) [OXD-2312],pKi,[5],7.92
same,pKi,[6],8.29
Oc1ccc2[nH]c(-c3ccc(F)nc3N3CCCC(F)C3)cc2c1 (stereo not drawn) [OXD-2313],pKi,[5],7.96
same,pKi,[6],8.32
Oc1ccc2[nH]c(-c3ccc(N4CCC(F)CC4)nc3F)cc2c1 [OXD-2317],pKi,[5],8.27
same,pKi,[6],8.24
CO[C@H]1CCCN(c2ncc(-c3cc4cc(O)ccc4[nH]3)c(F)n2)C1 [OXD-2331],pKi,[5],8.13
same,pKi,[6],8.20
NCCNC(=O)c1ncsc1-c1cccc(F)c1 [Ro41-1049],pKi,"[1]; vs [^3H]OXD-2314, AD tissue",< 5.00
same,pKi,"[2]; vs [^3H]OXD-2314, CBD tissue",< 5.00
same,pKi,"[3]; vs [^3H]OXD-2314, PSP tissue",< 5.00
Fc1ccc(-c2ccc3c(c2)[nH]c2ccncc23)cn1 [Tauvid],pKi,[1],< 5.00
same,pKi,[4],5.36
same,pKi,[2],< 5.00
same,pKi,[3],< 5.00
Oc1ccc2[nH]c(-c3ccc(N4CCC[C@@H](O)C4)nc3[18F])cc2c1 [[18F]OXD-2188],initial brain uptake,[8],~ 1.0 SUV
Oc1ccc2[nH]c(-c3ccc(N4CCC[C@H](O)C4)nc3[18F])cc2c1 [[18F]OXD-2189],initial brain uptake,[8],~ 1.0 SUV
